# Results as given in article PMC12210252 (2025).
# Experiments:
# [1] = test system: AptT4 (SH-5′-AptT4) (DNA, aptamer) CGCCGTTGGTGTTCGGTCAGGCTTCCGTGGCAACGGGGCAAAATGGTAATCGCGGGGAACC; assay: SnS2 field-effect transistor, selectivity test; settings: 137 mM NaCl, 2.7 mM KCl, 0.5 mM MgCl2; 1× PBS, pH 7.4; tested at 10 nM against 1 pM T4; low response
# [2] = test system: AptT4 (SH-5′-AptT4) (DNA, aptamer) CGCCGTTGGTGTTCGGTCAGGCTTCCGTGGCAACGGGGCAAAATGGTAATCGCGGGGAACC; assay: SnS2 field-effect transistor, Langmuir isotherm fit; settings: 137 mM NaCl, 2.7 mM KCl, 0.5 mM MgCl2; 1× PBS (10 mM Na2HPO4, 2 mM KH2PO4), pH 7.4; aptamer immobilised with PEG
binding [1],K d [2] [nM],Compound
no,–,N[C@@H](Cc1cc(I)c(Oc2ccc(O)c(I)c2)c(I)c1)C(=O)O
no,–,CC(C)(c1ccc(O)cc1)c1ccc(O)cc1
–,0.0144 ± 0.0008,N[C@@H](Cc1cc(I)c(Oc2cc(I)c(O)c(I)c2)c(I)c1)C(=O)O
